Results reported in PubChem BioAssay AID1259407 (Chemical Carcinogenesis Research Information System (CCRIS), 2018).
Activity calls are given as the source filed them. No rule for the calls is given here.

System: CCRIS mutagenicity, Ames/micronucleus/aberration tests
Assay: CCRIS mutagenicity studies
[1] = Test System: AMES SALMONELLA TYPHIMURIUM, Strain/Indicator: TA98, Metabolic Activation: NONE, Method: STANDARD PLATE
[2] = Test System: AMES SALMONELLA TYPHIMURIUM, Strain/Indicator: TA100, Metabolic Activation: HAMSTER, LIVER, S-9, AROCLOR 1254, Method: STANDARD PLATE
[3] = Test System: AMES SALMONELLA TYPHIMURIUM, Strain/Indicator: TA100, Metabolic Activation: NONE, Method: STANDARD PLATE
[4] = Test System: AMES SALMONELLA TYPHIMURIUM, Strain/Indicator: TA100, Metabolic Activation: RAT, LIVER, S-9, AROCLOR 1254, Method: STANDARD PLATE
[5] = Test System: AMES SALMONELLA TYPHIMURIUM, Strain/Indicator: TA1535, Metabolic Activation: HAMSTER, LIVER, S-9, AROCLOR 1254, Method: STANDARD PLATE
[6] = Test System: AMES SALMONELLA TYPHIMURIUM, Strain/Indicator: TA1535, Metabolic Activation: NONE, Method: STANDARD PLATE
[7] = Test System: AMES SALMONELLA TYPHIMURIUM, Strain/Indicator: TA1535, Metabolic Activation: RAT, LIVER, S-9, AROCLOR 1254, Method: STANDARD PLATE
[8] = Test System: AMES SALMONELLA TYPHIMURIUM, Strain/Indicator: TA1537, Metabolic Activation: NONE, Method: STANDARD PLATE
[9] = Test System: AMES SALMONELLA TYPHIMURIUM, Strain/Indicator: TA1537, Metabolic Activation: RAT, LIVER, S-9, AROCLOR 1254, Method: STANDARD PLATE
[10] = Test System: AMES SALMONELLA TYPHIMURIUM, Strain/Indicator: TA1538, Metabolic Activation: NONE, Method: STANDARD PLATE

COc1ccc(N)c(OC)c1
mutagenic call (Test System: AMES SALMONELLA TYPHIMURIUM, Strain/Indicator: TA98, Metabolic Activation: HAMSTER, LIVER, S-9, AROCLOR 1254 (30%), Method: PREINCUBATION): active; positive | mutagenic call (Test System: AMES SALMONELLA TYPHIMURIUM, Strain/Indicator: TA98, Metabolic Activation: HAMSTER, LIVER, S-9, Method: STANDARD PLATE): inactive; negative | mutagenic call (Test System: AMES SALMONELLA TYPHIMURIUM, Strain/Indicator: TA98, Metabolic Activation: MOUSE, LIVER, S-9, AROCLOR 1254, Method: STANDARD PLATE): inactive; negative | mutagenic call (Test System: AMES SALMONELLA TYPHIMURIUM, Strain/Indicator: TA98, Metabolic Activation: MOUSE, LIVER, S-9, Method: STANDARD PLATE): inactive; negative | mutagenic call (Test System: AMES SALMONELLA TYPHIMURIUM, Strain/Indicator: TA98, Metabolic Activation: NONE, Method: PREINCUBATION): inactive; negative | mutagenic call [1]: inactive; negative | mutagenic call (Test System: AMES SALMONELLA TYPHIMURIUM, Strain/Indicator: TA98, Metabolic Activation: RAT, LIVER, S-9, AROCLOR 1254 (30%), Method: PREINCUBATION): active; positive | mutagenic call (Test System: AMES SALMONELLA TYPHIMURIUM, Strain/Indicator: TA98, Metabolic Activation: RAT, LIVER, S-9, Method: STANDARD PLATE): inactive; negative | mutagenic call (Test System: AMES SALMONELLA TYPHIMURIUM, Strain/Indicator: TA100, Metabolic Activation: HAMSTER, LIVER, S-9, AROCLOR 1254 (30%), Method: PREINCUBATION): active; positive | mutagenic call [2]: inactive; negative | mutagenic call (Test System: AMES SALMONELLA TYPHIMURIUM, Strain/Indicator: TA100, Metabolic Activation: HAMSTER, LIVER, S-9, Method: STANDARD PLATE): inactive; negative | mutagenic call (Test System: AMES SALMONELLA TYPHIMURIUM, Strain/Indicator: TA100, Metabolic Activation: MOUSE, LIVER, S-9, AROCLOR 1254, Method: STANDARD PLATE): inactive; negative | mutagenic call (Test System: AMES SALMONELLA TYPHIMURIUM, Strain/Indicator: TA100, Metabolic Activation: MOUSE, LIVER, S-9, Method: STANDARD PLATE): inactive; negative | mutagenic call (Test System: AMES SALMONELLA TYPHIMURIUM, Strain/Indicator: TA100, Metabolic Activation: NONE, Method: PREINCUBATION): inactive; negative | mutagenic call [3]: inactive; negative | mutagenic call (Test System: AMES SALMONELLA TYPHIMURIUM, Strain/Indicator: TA100, Metabolic Activation: RAT, LIVER, S-9, AROCLOR 1254 (30%), Method: PREINCUBATION): inactive; negative | mutagenic call [4]: inactive; negative | mutagenic call (Test System: AMES SALMONELLA TYPHIMURIUM, Strain/Indicator: TA100, Metabolic Activation: RAT, LIVER, S-9, Method: STANDARD PLATE): inactive; negative | mutagenic call [5]: inactive; negative | mutagenic call (Test System: AMES SALMONELLA TYPHIMURIUM, Strain/Indicator: TA1535, Metabolic Activation: HAMSTER, LIVER, S-9, Method: STANDARD PLATE): inactive; negative | mutagenic call (Test System: AMES SALMONELLA TYPHIMURIUM, Strain/Indicator: TA1535, Metabolic Activation: MOUSE, LIVER, S-9, AROCLOR 1254, Method: STANDARD PLATE): inactive; negative | mutagenic call (Test System: AMES SALMONELLA TYPHIMURIUM, Strain/Indicator: TA1535, Metabolic Activation: MOUSE, LIVER, S-9, Method: STANDARD PLATE): inactive; negative | mutagenic call [6]: inactive; negative | mutagenic call [7]: inactive; negative | mutagenic call (Test System: AMES SALMONELLA TYPHIMURIUM, Strain/Indicator: TA1535, Metabolic Activation: RAT, LIVER, S-9, Method: STANDARD PLATE): inactive; negative | mutagenic call (Test System: AMES SALMONELLA TYPHIMURIUM, Strain/Indicator: TA1537, Metabolic Activation: HAMSTER, LIVER, S-9, Method: STANDARD PLATE): inactive; negative | mutagenic call (Test System: AMES SALMONELLA TYPHIMURIUM, Strain/Indicator: TA1537, Metabolic Activation: MOUSE, LIVER, S-9, AROCLOR 1254, Method: STANDARD PLATE): inactive; negative | mutagenic call (Test System: AMES SALMONELLA TYPHIMURIUM, Strain/Indicator: TA1537, Metabolic Activation: MOUSE, LIVER, S-9, Method: STANDARD PLATE): inactive; negative | mutagenic call [8]: inactive; negative | mutagenic call [9]: inactive; negative | mutagenic call (Test System: AMES SALMONELLA TYPHIMURIUM, Strain/Indicator: TA1537, Metabolic Activation: RAT, LIVER, S-9, Method: STANDARD PLATE): inactive; negative | mutagenic call (Test System: AMES SALMONELLA TYPHIMURIUM, Strain/Indicator: TA1538, Metabolic Activation: MOUSE, LIVER, S-9, Method: STANDARD PLATE): inactive; negative | mutagenic call [10]: inactive; negative | mutagenic call (Test System: AMES SALMONELLA TYPHIMURIUM, Strain/Indicator: TA1538, Metabolic Activation: RAT, LIVER, S-9, Method: STANDARD PLATE): inactive; negative | mutagenic call (Test System: E. COLI, Strain/Indicator: WP2 UVRA, Metabolic Activation: HAMSTER, LIVER, S-9, AROCLOR 1254, Method: STANDARD PLATE): inactive; negative | mutagenic call (Test System: E. COLI, Strain/Indicator: WP2 UVRA, Metabolic Activation: HAMSTER, LIVER, S-9, Method: STANDARD PLATE): inactive; negative | mutagenic call (Test System: E. COLI, Strain/Indicator: WP2 UVRA, Metabolic Activation: MOUSE, LIVER, S-9, AROCLOR 1254, Method: STANDARD PLATE): inactive; negative | mutagenic call (Test System: E. COLI, Strain/Indicator: WP2 UVRA, Metabolic Activation: MOUSE, LIVER, S-9, Method: STANDARD PLATE): inactive; negative | mutagenic call (Test System: E. COLI, Strain/Indicator: WP2 UVRA, Metabolic Activation: NONE, Method: STANDARD PLATE): inactive; negative | mutagenic call (Test System: E. COLI, Strain/Indicator: WP2 UVRA, Metabolic Activation: RAT, LIVER, S-9, AROCLOR 1254, Method: STANDARD PLATE): inactive; negative | mutagenic call (Test System: E. COLI, Strain/Indicator: WP2 UVRA, Metabolic Activation: RAT, LIVER, S-9, Method: STANDARD PLATE): inactive; negative

CCCCC=O
mutagenic call (Test System: AMES SALMONELLA TYPHIMURIUM, Strain/Indicator: TA98, Metabolic Activation: HAMSTER, LIVER, S-9, AROCLOR 1254, Method: STANDARD PLATE): inactive; negative | mutagenic call [1]: inactive; negative | mutagenic call (Test System: AMES SALMONELLA TYPHIMURIUM, Strain/Indicator: TA98, Metabolic Activation: RAT, LIVER, S-9, AROCLOR 1254, Method: STANDARD PLATE): inactive; negative | mutagenic call [2]: inactive; negative | mutagenic call [3]: inactive; negative | mutagenic call [4]: inactive; negative | mutagenic call [5]: inactive; negative | mutagenic call [6]: inactive; negative | mutagenic call [7]: inactive; negative | mutagenic call (Test System: AMES SALMONELLA TYPHIMURIUM, Strain/Indicator: TA1537, Metabolic Activation: HAMSTER, LIVER, S-9, AROCLOR 1254, Method: STANDARD PLATE): inactive; negative | mutagenic call [8]: inactive; negative | mutagenic call [9]: inactive; negative | mutagenic call (Test System: AMES SALMONELLA TYPHIMURIUM, Strain/Indicator: TA1538, Metabolic Activation: HAMSTER, LIVER, S-9, AROCLOR 1254, Method: STANDARD PLATE): inactive; negative | mutagenic call [10]: inactive; negative | mutagenic call (Test System: AMES SALMONELLA TYPHIMURIUM, Strain/Indicator: TA1538, Metabolic Activation: RAT, LIVER, S-9, AROCLOR 1254, Method: STANDARD PLATE): inactive; negative | mutagenic call (Test System: CHINESE HAMSTER V-79, Strain/Indicator: V-79/6-THIOGUANINE (HGPRT), Metabolic Activation: NONE, Method: REPLATING): active; positive | mutagenic call (Test System: CHINESE HAMSTER V-79, Strain/Indicator: V-79/OUABAIN (NA/K), Metabolic Activation: NONE, Method: REPLATING): active; positive | mutagenic call (Test System: MOUSE LYMPHOMA, Strain/Indicator: L5178Y (TK+/TK-), Metabolic Activation: NONE, Method: SUSPENSION/PLATE): active; positive. reevaluation of results: positive | mutagenic call (Test System: MOUSE LYMPHOMA, Strain/Indicator: L5178Y (TK+/TK-), Metabolic Activation: RAT, LIVER, S-9, AROCLOR 1254, Method: SUSPENSION/PLATE): inactive; negative. reevaluation of results: negative | mutagenic call (Test System: UDS HUMAN HEPATOCYTES, Strain/Indicator: THY INCORP, Metabolic Activation: NONE, Method: AUTORADIOGRAPHY): inactive; negative | mutagenic call (Test System: UDS RAT HEPATOCYTES, Strain/Indicator: THY INCORP, Metabolic Activation: NONE, Method: AUTORADIOGRAPHY): active; positive
